± gives the expanded uncertainty stated by the source.
Assay: molar heat capacity at constant pressure
Settings: 101.33 kPa, Crystal, Small (less than 1 g) adiabatic calorimetry

O=P([O-])([O-])[O-].[La+3] [lanthanum orthophosphate]
Settings	molar heat capacity at constant pressure [J/K/mol]
2 K	0.00122
4 K	0.01153 ± 0.02
6 K	0.03674 ± 0.021
8 K	0.08437 ± 0.021
10 K	0.1669 ± 0.023
12 K	0.2994 ± 0.025
14 K	0.4971 ± 0.027
16 K	0.7738 ± 0.031
18 K	1.141 ± 0.035
20 K	1.605 ± 0.04
25 K	3.201 ± 0.053
25.03 K	3.418 ± 0.055
25.8 K	3.691 ± 0.056
26.57 K	3.997 ± 0.058
27.34 K	4.269 ± 0.059
28.12 K	4.62 ± 0.061
28.89 K	4.94 ± 0.062
29.68 K	5.294 ± 0.064
30 K	5.306 ± 0.13
30.46 K	5.695 ± 0.13
31.24 K	6.098 ± 0.13
32.03 K	6.511 ± 0.13
32.86 K	6.925 ± 0.14
33.65 K	7.346 ± 0.14
34.44 K	7.659 ± 0.14
35 K	7.89 ± 0.14
35.24 K	8.049 ± 0.14
36.04 K	8.576 ± 0.14
36.84 K	9.023 ± 0.15
37.64 K	9.523 ± 0.15
38.44 K	9.994 ± 0.15
39.25 K	10.48 ± 0.15
40 K	10.82 ± 0.15
40.05 K	10.95 ± 0.16
40.86 K	11.44 ± 0.16
41.67 K	11.92 ± 0.16
42.48 K	12.4 ± 0.16
43.29 K	12.88 ± 0.16
44.1 K	13.34 ± 0.17
44.92 K	13.87 ± 0.17
45 K	13.97 ± 0.17
45.76 K	14.39 ± 0.17
48.2 K	16.03 ± 0.18
49.02 K	16.52 ± 0.18
49.84 K	17.11 ± 0.19
50 K	17.23 ± 0.19
50.65 K	17.64 ± 0.19
51.47 K	18.19 ± 0.19
52.29 K	18.72 ± 0.19
53.11 K	19.27 ± 0.2
53.93 K	19.79 ± 0.2
54.75 K	20.27 ± 0.2
55.57 K	20.78 ± 0.2
56.4 K	21.36 ± 0.21
57.22 K	21.86 ± 0.21
58.04 K	22.41 ± 0.21
58.89 K	22.97 ± 0.22
59.72 K	23.49 ± 0.22
60 K	23.73 ± 0.22
60.54 K	24.01 ± 0.22
61.37 K	24.55 ± 0.22
62.2 K	25.1 ± 0.23
63.03 K	25.6 ± 0.23
63.86 K	26.14 ± 0.23
64.69 K	26.66 ± 0.23
65.52 K	27.24 ± 0.24
66.35 K	27.76 ± 0.24
67.19 K	28.22 ± 0.24
68.02 K	28.62 ± 0.24
68.86 K	29.07 ± 0.25
69.7 K	29.48 ± 0.25
70 K	29.93 ± 0.25
70.93 K	30.26 ± 0.25
72.58 K	31.21 ± 0.26
73.58 K	31.56 ± 0.26
74.82 K	32.17 ± 0.26
76.07 K	33.31 ± 0.27
77.32 K	33.78 ± 0.27
78.55 K	34.74 ± 0.27
80 K	35.68 ± 0.28
80.58 K	36.06 ± 0.28
82.23 K	36.9 ± 0.28
83.88 K	37.58 ± 0.29
85.53 K	38.39 ± 0.29
87.18 K	39.57 ± 0.3
88.83 K	40.58 ± 0.3
90 K	40.96 ± 0.36
90.48 K	41.33 ± 0.37
92.13 K	42.17 ± 0.37
93.78 K	42.97 ± 0.37
95.43 K	43.79 ± 0.38
97.08 K	44.53 ± 0.38
100 K	45.82 ± 0.38
101.86 K	46.91 ± 0.39
102.42 K	47.17 ± 0.39
104.27 K	47.95 ± 0.39
104.88 K	48.25 ± 0.39
106.71 K	49.05 ± 0.4
107.34 K	49.42 ± 0.4
109.16 K	50.14 ± 0.4
109.8 K	50.46 ± 0.4
110 K	50.3 ± 0.4
111.6 K	51.16 ± 0.4
112.25 K	51.55 ± 0.41
114.04 K	52.08 ± 0.41
114.7 K	52.52 ± 0.41
116.47 K	53.12 ± 0.41
117.16 K	53.55 ± 0.41
119.61 K	54.49 ± 0.42
120 K	54.48 ± 0.42
122.06 K	55.51 ± 0.42
124.51 K	56.3 ± 0.43
126.96 K	57.27 ± 0.43
